Assay results published in patent publication US6380277B1, “Iodonium salt photoinitiators containing urethane groups for cationic curing” (Goldschmidt AG, priority 1999, dated 2002).

Tests used:
Solubility in toluene = format: physicochemical
Description: The solubility of the iodonium salts of the invention was compared with the solubility of the hydroxyl-bearing iodonium salts.

[1] = Miscibility with organopolysiloxanes containing epoxy groups; format: physicochemical
[2] = Tests relating to cationic photopolymerization (UV curing of coating)
Description: In order to examine the activity of the compounds shown in Examples 1-4 in cationic photopolymerization, 98 parts of a cycloaliphatic epoxysilane having an epoxy value of 3.5% and a viscosity of 125 mPas were mixed with 2 parts of each photoinitiator.
The mixtures were then applied to a standard OPP film (30 μm) using a pilot-scale coating machine equipped with a five-roll applicator unit. The application weight was 0.5-1 g/m^2. The coatings were subsequently cured with a microwave-excited UV lamp (Fusion, 120 W/cm) at a web speed of 20 m/min.
Directly following passage under the UV lamp, it was determined whether the coatings have cured to a film which is no longer tacky.

[3] = Hydrolytic stability: time to formation of visible precipitates or crystals; format: physicochemical; settings: time to formation of visible precipitates or crystals of hydrolytic cleavage product formula (XI)
Description: The improved hydrolytic stability of the iodonium salts of the invention containing urethane groups may best be shown in comparison with the iodonium salt with the formula (XVI), containing Si—O—C bonds (see German Patent Application 19901531.7). [drawing 19]
Indicated is the time to the formation of visible precipitates or crystals of the hydrolytic cleavage product with the formula (XI): […]

## CCCCCCCCCCCCC(COc1ccc([I+]c2ccccc2)cc1)OC(=O)Nc1cccc(C(F)(F)F)c1 (stereo not drawn) [Formula (VII)]
Solubility in toluene
  solubility in toluol: unrestricted solubility

## CCCCCCCCCCCCC(O)COc1ccc([I+]c2ccccc2)cc1 (stereo not drawn) [Formula (VIII)]
Solubility in toluene
  solubility in toluol: insoluble
[1]
  miscibility with organopolysiloxanes containing epoxy groups: no miscibility
[2]; 2 parts photoinitiator in 98 parts cycloaliphatic epoxysilane (epoxy value 3.5%, 125 mPas)
  Appearance of the mixture: cloudy,
[2]; 2 parts photoinitiator, 0.5-1 g/m^2 on OPP film, UV lamp 120 W/cm, web speed 20 m/min, judged directly after lamp
  Curing after the UV lamp: unsatisfactory;

## CCCCCCCCCCCCC(O)COc1ccc([I+]c2ccccc2)cc1 (stereo not drawn) [Formula (XI)]
Solubility in toluene
  Solubility in toluene: insoluble
other
  melting point: 91 °C

## CCCCCCCCCCCCC(COc1ccc([I+]c2ccccc2)cc1)O[Si](C)(C)C (stereo not drawn) [Formula (XVI)]
[3]; 50% w/w in 1-butanol
  Stability in 1-butanol (50% w/w): 2 days
[3]; 50% w/w in toluene
  Stability in toluene (50% w/w): 21 days
